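Grown in 96-well plates, cells were treated for 48 hours with each compound at five concentrations. Insufficient inhibition: endpoint recorded as highest concentration tested. GI50 = concentration required for 50% inhibition of growth. At the TGI there is no net growth.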
Tests used:
Experiment in all cases: NCI tumour cell line growth inhibition, 48 h
[1] = test system: BT-549 breast
[2] = test system: MALME-3M melanoma
[3] = test system: 786-0 renal
[4] = test system: SR leukemia
[5] = test system: NCI-H522 lung
[6] = test system: M14 melanoma
[7] = test system: SN12C renal
[8] = test system: PC-3 prostate
[9] = test system: HCT-15 colon
[10] = test system: OVCAR-4 ovarian
[11] = test system: IGROV1 ovarian
[12] = test system: A498 renal
[13] = test system: HCC-2998 colon
[14] = test system: MDA-MB-435
[15] = test system: SF-295 CNS
[16] = test system: SK-OV-3 ovarian
[17] = test system: UACC-62 melanoma
[18] = test system: CAKI-1 renal
[19] = test system: NCI-H226 lung
[20] = test system: DU-145 prostate
[21] = test system: LOX IMVI melanoma
[22] = test system: TK-10 renal
[23] = test system: MOLT-4 leukemia
[24] = test system: NCI-H23 lung
[25] = test system: NCI-H460 lung
[26] = test system: T-47D breast
[27] = test system: SK-MEL-5 melanoma
[28] = test system: KM12 colon
[29] = test system: HCT-116 colon
[30] = test system: UACC-257 melanoma
[31] = test system: MDA-MB-231 breast
[32] = test system: COLO 205 colon
[33] = test system: HOP-62 NSCLC
[34] = test system: MCF7 breast
[35] = test system: OVCAR-8 ovarian
[36] = test system: RXF 393 renal
[37] = test system: A549 NSCLC
[38] = test system: RPMI-8226 leukemia
[39] = test system: HT29 colon
[40] = test system: U251 CNS
[41] = test system: SK-MEL-28 melanoma
[42] = test system: SW-620 colon
[43] = test system: CCRF-CEM leukemia
[44] = test system: ACHN renal
[45] = test system: EKVX NSCLC
[46] = test system: OVCAR-5 ovarian
[47] = test system: SF-539 CNS
[48] = test system: UO-31 renal
[49] = test system: SNB-75 CNS
[50] = test system: HS 578T breast
[51] = test system: SNB-19 CNS
[52] = test system: SF-268 CNS
[53] = test system: NCI/ADR-RES ovarian
[54] = test system: K-562 leukemia

C#C[C@]1(O)CC[C@H]2[C@@H]3CC=C4c5sc(N6CCN(C)CC6)nc5CC[C@]4(C)[C@H]3CC[C@@]21C
GI50 [1]: 1.9 µM
TGI [1]: 3.95 µM
GI50 [2]: 1.76 µM
TGI [2]: 3.28 µM
GI50 [3]: 1.7 µM
TGI [3]: 3.15 µM
GI50 [4]: 1.56 µM
TGI [4]: 5.39 µM
GI50 [5]: 1.48 µM
TGI [5]: 3.3 µM
GI50 [6]: 1.54 µM
TGI [6]: 2.97 µM
GI50 [7]: 1.77 µM
TGI [7]: 3.43 µM
GI50 [8]: 1.61 µM
TGI [8]: 3.07 µM
GI50 [9]: 1.25 µM
TGI [9]: 2.93 µM
GI50 [10]: 1.94 µM
TGI [10]: 4.02 µM
GI50 [11]: 1.87 µM
TGI [11]: 3.62 µM
GI50 [12]: 4.25 µM
TGI [12]: 16.9 µM
GI50 [13]: 2.06 µM
TGI [13]: 4.35 µM
GI50 [14]: 1.16 µM
TGI [14]: 2.53 µM
GI50 [15]: 1.87 µM
TGI [15]: 3.96 µM
GI50 [16]: 1.68 µM
TGI [16]: 3.18 µM
GI50 [17]: 1.79 µM
TGI [17]: 3.42 µM
GI50 [18]: 1.56 µM
TGI [18]: 3.08 µM
GI50 [19]: 9.83 µM
TGI [19]: 28.8 µM
GI50 [20]: 2.23 µM
TGI [20]: 5.13 µM
GI50 [21]: 1.7 µM
TGI [21]: 3.33 µM
GI50 [22]: 2.36 µM
TGI [22]: 4.55 µM
GI50 [23]: 1.89 µM
TGI [23]: 4.66 µM
GI50 [24]: 1.76 µM
TGI [24]: 3.59 µM
GI50 [25]: 1.99 µM
TGI [25]: 3.8 µM
GI50 [26]: 12.1 µM
TGI [26]: 30.1 µM
GI50 [27]: 1.74 µM
TGI [27]: 3.2 µM
GI50 [28]: 1.92 µM
TGI [28]: 4.08 µM
GI50 [29]: 1.78 µM
TGI [29]: 3.38 µM
GI50 [30]: 1.77 µM
TGI [30]: 3.27 µM
GI50 [31]: 1.93 µM
TGI [31]: 3.73 µM
GI50 [32]: 1.98 µM
TGI [32]: 3.83 µM
GI50 [33]: 1.71 µM
TGI [33]: 3.27 µM
GI50 [34]: 1.83 µM
TGI [34]: 3.8 µM
GI50 [35]: 1.81 µM
TGI [35]: 3.41 µM
GI50 [36]: 1.42 µM
TGI [36]: 3.05 µM
GI50 [37]: 1.83 µM
TGI [37]: 3.39 µM
GI50 [38]: 1.6 µM
TGI [38]: 4.16 µM
GI50 [39]: 1.76 µM
TGI [39]: 4.18 µM
GI50 [40]: 1.51 µM
TGI [40]: 2.87 µM
GI50 [41]: 1.68 µM
TGI [41]: 3.19 µM
GI50 [42]: 1.81 µM
TGI [42]: 3.45 µM
GI50 [43]: 2.23 µM
TGI [43]: 4.74 µM
GI50 [44]: 1.79 µM
TGI [44]: 3.25 µM
GI50 [45]: 1.84 µM
TGI [45]: 3.83 µM
GI50 [46]: 1.82 µM
TGI [46]: 3.53 µM
GI50 [47]: 1.45 µM
TGI [47]: 2.9 µM
GI50 [48]: 1.74 µM
TGI [48]: 3.17 µM
GI50 [49]: 1.69 µM
TGI [49]: 3.87 µM
GI50 [50]: 2.42 µM
TGI [50]: 8.44 µM
GI50 [51]: 1.81 µM
TGI [51]: 3.75 µM
GI50 [52]: 2.01 µM
TGI [52]: 4.31 µM
GI50 [53]: 2.18 µM
TGI [53]: 5.71 µM
GI50 [54]: 1.34 µM
TGI [54]: 4.5 µM
